Each structure is given as a SMILES string. Read-outs that look alike come from different tables or passages of the source. Bounds are passed on as bounds.

One test relates to cyclin D1. Briefly: Cyclin D1 percentage degradation in Calu-1 cells (immunoblotting). In kind it is cell-based. The note with it: 16 hours. In outline:
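Cyclin D1 degradation was assessed by western blot. Clarified lysates, obtained by RIPA lysis with inhibitors and centrifugation at 13,000 rpm, were normalized by BCA protein assay and separated by SDS-PAGE. Bands were detected with Western ECL Substrate on a Bio-Rad ChemiDoc MP Imaging system and quantified in Image Lab software to derive percentage degradation.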
(In general: Immunoblotting shows a protein as a band on a membrane.)

Another test addresses T1, CDK4 (Homo sapiens, UniProt P11802).
T1 construct: endogenous in cells; host or cells: Calu-1
Briefly: CDK4 percentage degradation in Calu-1 cells (immunoblotting). In kind it is cell-based. As to conditions: for inhibition at 0.2 µM: read-out: CDK4 Degradation (200 nM); for inhibition at 10 µM: read-out: CDK4 Degradation (10 μM). In short, it runs like this: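 CDK4 degradation was measured by immunoblotting. Cells were washed in cold PBS and lysed in RIPA buffer with inhibitors for 30 min at 4° C., then spun at 13,000 rpm to clear. After BCA protein determination, lysates were heated at 99° C. for 5 min in Laemmli buffer, resolved on SDS-PAGE, imaged on a ChemiDoc MP with ECL substrate, and band intensities quantified.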

T1 sequence (P11802 2-303 limits assumed): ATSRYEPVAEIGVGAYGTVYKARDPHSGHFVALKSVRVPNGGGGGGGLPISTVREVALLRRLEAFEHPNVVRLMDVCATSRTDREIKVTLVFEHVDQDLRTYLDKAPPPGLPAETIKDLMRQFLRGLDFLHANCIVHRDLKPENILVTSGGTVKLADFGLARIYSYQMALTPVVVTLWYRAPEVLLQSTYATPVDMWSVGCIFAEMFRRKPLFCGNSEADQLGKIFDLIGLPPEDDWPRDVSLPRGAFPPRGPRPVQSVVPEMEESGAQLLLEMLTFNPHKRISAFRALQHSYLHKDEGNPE
T1 sequence (P24385 whole entry partner): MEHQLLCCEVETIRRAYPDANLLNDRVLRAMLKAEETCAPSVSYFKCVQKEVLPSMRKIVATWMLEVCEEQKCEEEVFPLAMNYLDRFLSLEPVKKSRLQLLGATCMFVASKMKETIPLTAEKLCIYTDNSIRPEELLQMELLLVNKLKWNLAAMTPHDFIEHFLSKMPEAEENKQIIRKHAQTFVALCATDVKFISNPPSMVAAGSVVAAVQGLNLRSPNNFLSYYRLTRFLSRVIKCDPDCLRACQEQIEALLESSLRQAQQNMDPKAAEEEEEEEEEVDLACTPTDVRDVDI
T1 sequence (Q16531 2-1140 limits assumed, further chain): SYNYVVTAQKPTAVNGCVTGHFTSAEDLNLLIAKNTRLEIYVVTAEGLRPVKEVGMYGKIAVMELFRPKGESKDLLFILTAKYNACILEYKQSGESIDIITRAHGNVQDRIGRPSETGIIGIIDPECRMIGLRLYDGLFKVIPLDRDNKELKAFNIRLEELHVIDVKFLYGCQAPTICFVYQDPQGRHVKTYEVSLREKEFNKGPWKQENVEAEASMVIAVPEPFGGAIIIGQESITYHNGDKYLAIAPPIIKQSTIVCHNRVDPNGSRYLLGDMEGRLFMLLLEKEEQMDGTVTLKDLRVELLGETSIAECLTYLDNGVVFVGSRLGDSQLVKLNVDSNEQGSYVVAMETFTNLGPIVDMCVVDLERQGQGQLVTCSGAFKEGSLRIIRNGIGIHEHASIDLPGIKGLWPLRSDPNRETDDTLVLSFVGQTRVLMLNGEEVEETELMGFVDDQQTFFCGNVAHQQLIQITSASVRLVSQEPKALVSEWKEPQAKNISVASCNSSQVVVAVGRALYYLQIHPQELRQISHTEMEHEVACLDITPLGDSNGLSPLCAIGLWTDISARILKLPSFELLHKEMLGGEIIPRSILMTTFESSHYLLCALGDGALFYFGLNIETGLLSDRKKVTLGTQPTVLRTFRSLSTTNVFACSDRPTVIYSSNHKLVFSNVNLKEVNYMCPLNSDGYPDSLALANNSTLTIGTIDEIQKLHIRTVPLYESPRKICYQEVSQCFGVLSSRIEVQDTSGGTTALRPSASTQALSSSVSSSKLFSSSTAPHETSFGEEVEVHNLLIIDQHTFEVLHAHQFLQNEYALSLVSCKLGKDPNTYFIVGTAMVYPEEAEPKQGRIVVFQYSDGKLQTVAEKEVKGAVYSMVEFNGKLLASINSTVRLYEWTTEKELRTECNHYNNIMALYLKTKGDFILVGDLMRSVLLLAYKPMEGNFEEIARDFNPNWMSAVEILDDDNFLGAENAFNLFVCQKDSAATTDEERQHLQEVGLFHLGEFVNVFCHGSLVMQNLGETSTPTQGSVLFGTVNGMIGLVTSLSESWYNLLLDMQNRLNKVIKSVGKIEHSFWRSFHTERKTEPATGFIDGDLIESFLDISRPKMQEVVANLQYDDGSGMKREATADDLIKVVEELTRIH

With `CC(=O)c1c(C)c2cnc(Nc3ccc(N4CCN(CC(=O)NCCOCCOCCC(=O)Nc5cc6c(cc5C(=O)Nc5ccc(C)cn5)CCCN6)CC4)cn3)nc2n(C2CCCC2)c1=O` [CPD-358, 7-(3-(2-(2-(2-(4-(6-((6-Acetyl-8-cyclopentyl-5-methyl-7-oxo-7,8-dihydropyrido[2,3-d]pyrimidin-2-yl)amino)pyridin-3-yl)piperazin-1-yl)acetamido)ethoxy)ethoxy)propanamido)-N-(5-methylpyridin-2-yl)-1,2,3,4-tetrahydroquinoline-6-carboxamide], the “CyclinD1 Degradation (200 nM)” value in the test on cyclin D1 is given as “A (protein percentage degradation >=80%)”. The inhibition at 0.2 µM at CDK4 (Calu-1 cells, 200 nM, 16 hours) is 50 to 80%.

As for `CC(=O)c1c(C)c2cnc(Nc3ccc(N4CCN(CCNCCOCCOCCNc5cccc(C(=O)Nc6nc(C)c(C)s6)c5C)CC4)cn3)nc2n(C2CCCC2)c1=O` [CPD-086, 3-((2-(2-(2-((2-(4-(6-((6-Acetyl-8-cyclopentyl-5-methyl-7-oxo-7,8-dihydropyrido[2,3-d]pyrimidin-2-yl)amino)pyridin-3-yl)piperazin-1-yl)ethyl)amino)ethoxy)ethoxy)ethyl)amino)-N-(4,5-dimethylthiazol-2-yl)-2-methylbenzamide], the “CyclinD1 Degradation (200 nM)” value in the test on cyclin D1 is recorded as “D (protein percentage degradation <30%)”. Moreover, the inhibition at 0.2 µM at CDK4 (Calu-1, 16 h) was less than 30%.

Consider `Cc1nc(NC(=O)c2ccccc2NC(=O)CCNC(=O)CN2CCN(Cc3ccc(Nc4ncc(F)c(-c5cc(F)c6nc(C)n(C(C)C)c6c5)n4)nc3)CC2)sc1C` [CPD-273, N-(4,5-Dimethylthiazol-2-yl)-2-(3-(2-(4-((6-((5-fluoro-4-(4-fluoro-1-isopropyl-2-methyl-1H-benzo[d]imidazol-6-yl)pyrimidin-2-yl)amino)pyridin-3-yl)methyl)piperazin-1-yl)acetamido)propanamido)benzamide], for which the “CyclinD1 Degradation (10 μM)” value in the test on cyclin D1 is given as “D (protein percentage degradation < 30%)”. Besides, the inhibition at 10 µM at CDK4 (Calu-1 cells, 16 hours) is less than 30%.

As to `CC(=O)c1c(C)c2cnc(Nc3ccc(N4CCN(CC(=O)NCCOCCOCCC(=O)Nc5cc(F)ccc5C(=O)Nc5nc(C)c(C)s5)CC4)cn3)nc2n(C2CCCC2)c1=O` [CPD-143, 2-(3-(2-(2-(2-(4-(6-((6-Acetyl-8-cyclopentyl-5-methyl-7-oxo-7,8-dihydropyrido[2,3-d]pyrimidin-2-yl)amino)pyridin-3-yl)piperazin-1-yl)acetamido)ethoxy)ethoxy)propanamido)-N-(4,5-dimethylthiazol-2-yl)-4-fluorobenzamide], in the test on cyclin D1, the “CyclinD1 Degradation (200 nM)” value is “A (protein percentage degradation >=80%)”. The inhibition at 0.2 µM at CDK4 (Calu-1 cells, 200 nM, 16 hours) is greater than 80%.

As for `Cc1nc(NC(=O)c2ccccc2NC(=O)CCOCCOCCOCCOCCOCCOCCNC(=O)CN2CCN(c3ccc(Nc4ncc5cc6n(c5n4)C4(CCCCC4)CNC6=O)nc3)CC2)sc1C` [CPD-327, N-(4,5-Dimethylthiazol-2-yl)-2-(2-oxo-1-(4-(6-((6′-oxo-7′,8′-dihydro-6′H-spiro[cyclohexane-1,9′-pyrazino[1′,2′:1,5]pyrrolo[2,3-d]pyrimidin]-2′-yl)amino)pyridin-3-yl)piperazin-1-yl)-6,9,12,15,18,21-hexaoxa-3-azatetracosan-24-amido)benzamide], the “CyclinD1 Degradation (10 μM)” value in the test on cyclin D1 is reported as “A (protein percentage degradation >= 80%)”. Further, the inhibition at 10 µM on CDK4 (Calu-1 cells, 16 hours) lay within 50 to 80%.

In the case of `Cc1nc(NC(=O)c2ccccc2NC(=O)CCOCCOCCOCCOCCOCCNC(=O)CN2CCN(c3ccc(Nc4ncc5cc6n(c5n4)C4(CCCCC4)CNC6=O)nc3)CC2)sc1C` [CPD-326, N-(4,5-Dimethylthiazol-2-yl)-2-(2-oxo-1-(4-(6-((6′-oxo-7′,8′-dihydro-6′H-spiro[cyclohexane-1,9′-pyrazino[1′,2′:1,5]pyrrolo[2,3-d]pyrimidin]-2′-yl)amino)pyridin-3-yl)piperazin-1-yl)-6,9,12,15,18-pentaoxa-3-azahenicosan-21-amido)benzamide], the “CyclinD1 Degradation (10 μM)” value in the test on cyclin D1 is “A (protein percentage degradation >= 80%)”. Besides, the inhibition at 10 µM on CDK4 (Calu-1 cells, 16 hours) was in the range of 50 to 80%.

`CC(=O)c1c(C)c2cnc(Nc3ccc(N4CCN(CC(=O)NCCOCCOCCOCCOCCOCCNC(=O)CNc5ccc(C(=O)Nc6ncc(C)s6)c(C)c5)CC4)cn3)nc2n(C2CCCC2)c1=O` [CPD-014, 4-((23-(4-(6-((6-Acetyl-8-cyclopentyl-5-methyl-7-oxo-7,8-dihydropyrido[2,3-d]pyrimidin-2-yl)amino)pyridin-3-yl)piperazin-1-yl)-2,22-dioxo-6,9,12,15,18-pentaoxa-3,21-diazatricosyl)amino)-2-methyl-N-(5-methylthiazol-2-yl)benzamide]: in the test with cyclin D1, the “CyclinD1 Degradation (200 nM)” value is recorded as “D (protein percentage degradation <30%)”. On CDK4 (Calu-1 cells, 200 nM, 16 hours), the inhibition at 0.2 µM is less than 30%.

For the compound `CC(=O)c1c(C)c2cnc(Nc3ccc(N4CCN(CC(=O)NCCOCCOCCOCCOCCOCCNc5ccc(C(=O)Nc6ncc(C(C)C)s6)c(C)c5)CC4)cn3)nc2n(C2CCCC2)c1=O` [CPD-006, 4-((1-(4-(6-((6-Acetyl-8-cyclopentyl-5-methyl-7-oxo-7,8-dihydropyrido[2,3-d]pyrimidin-2-yl)amino)pyridin-3-yl)piperazin-1-yl)-2-oxo-6,9,12,15,18-pentaoxa-3-azaicosan-20-yl)amino)-N-(5-isopropylthiazol-2-yl)-2-methylbenzamide], the “CyclinD1 Degradation (200 nM)” value with cyclin D1 is listed as “D (protein percentage degradation <30%)”. In addition, the inhibition at 0.2 µM at CDK4 (Calu-1 cells, 200 nM, 16 hours) was less than 30%.

As to `CC(=O)c1c(C)c2cnc(Nc3ccc(N4CCN(CC(=O)NCCOCCOCCC(=O)Nc5c(C(=O)Nc6ccc(C)cn6)ccc6[nH]ncc56)CC4)cn3)nc2n(C2CCCC2)c1=O` [CPD-359], the “CyclinD1 Degradation (200 nM)” value in the test with cyclin D1 is “A (protein percentage degradation >=80%)”. Also, at CDK4 (Calu-1 cells, 200 nM, 16 hours), the inhibition at 0.2 µM lay within 50 to 80%.

Regarding `Cc1nc(NC(=O)c2ccccc2NC(=O)CCOCCOCCOCCOCCOCCNC(=O)CN2CCN(c3ccc(Nc4ncc5cc(C(=O)N(C)C)n(C6CCCC6)c5n4)nc3)CC2)sc1C` [CPD-298, 7-Cyclopentyl-2-((5-(4-(21-((2-((4,5-dimethylthiazol-2-yl)carbamoyl)phenyl)amino)-2,21-dioxo-6,9,12,15,18-pentaoxa-3-azahenicosyl)piperazin-1-yl)pyridin-2-yl)amino)-N,N-dimethyl-7H-pyrrolo[2,3-d]pyrimidine-6-carboxamide], the “CyclinD1 Degradation (10 μM)” value in the test with cyclin D1 is given as “A (protein percentage degradation >= 80%)”. Moreover, the inhibition at 10 µM at CDK4 (Calu-1 cells, 16 hours) was 50 to 80%.

For `CC(=O)c1c(C)c2cnc(Nc3ccc(N4CCN(C(=O)CCCCCCNc5ccc(C)c(C(=O)Nc6nc(C)c(C)s6)c5)CC4)cn3)nc2n(C2CCCC2)c1=O` [CPD-109, 5-((7-(4-(6-((6-Acetyl-8-cyclopentyl-5-methyl-7-oxo-7,8-dihydropyrido[2,3-d]pyrimidin-2-yl)amino)pyridin-3-yl)piperazin-1-yl)-7-oxoheptyl)amino)-N-(4,5-dimethylthiazol-2-yl)-2-methylbenzamide], in the test on cyclin D1, the “CyclinD1 Degradation (200 nM)” value is “D (protein percentage degradation <30%)”. Also, the inhibition at 0.2 µM at CDK4 (Calu-1 cells, 200 nM, 16 hours) is less than 30%.

Turning to `CC(=O)c1c(C)c2cnc(Nc3ccc(N4CCN(CC(=O)NCCOCCOCCOCCOCCOCCNc5ccc(C)c(C(=O)Nc6nc(C)c(C)s6)c5)CC4)cn3)nc2n(C2CCCC2)c1=O` [CPD-097, 5-((1-(4-(6-((6-Acetyl-8-cyclopentyl-5-methyl-7-oxo-7,8-dihydropyrido[2,3-d]pyrimidin-2-yl)amino)pyridin-3-yl)piperazin-1-yl)-2-oxo-6,9,12,15,18-pentaoxa-3-azaicosan-20-yl)amino)-N-(4,5-dimethylthiazol-2-yl)-2-methylbenzamide], in the test with cyclin D1, the “CyclinD1 Degradation (200 nM)” value is “A (protein percentage degradation >=80%)”. Also, the inhibition at 0.2 µM on CDK4 (Calu-1 cells, 200 nM, 16 hours) lay in the range of 50 to 80%.

`CC(=O)c1c(C)c2cnc(Nc3ccc(N4CCN(C(=O)CCC(=O)Nc5ccccc5C(=O)Nc5nc(C)c(C)s5)CC4)cn3)nc2n(C2CCCC2)c1=O` [CPD-153, 2-(4-(4-(6-((6-Acetyl-8-cyclopentyl-5-methyl-7-oxo-7,8-dihydropyrido[2,3-d]pyrimidin-2-yl)amino)pyridin-3-yl)piperazin-1-yl)-4-oxobutanamido)-N-(4,5-dimethylthiazol-2-yl)benzamide]: the “CyclinD1 Degradation (200 nM)” value in the test on cyclin D1 is reported as “D (protein percentage degradation <30%)”. Moreover, on CDK4 (Calu-1, 16 h), the inhibition at 0.2 µM is less than 30%.

In the case of `CC(=O)c1c(C)c2cnc(Nc3ccc(N4CCN(C(=O)CCOCCOCCC(=O)Nc5ccccc5C(=O)Nc5nc(C)c(C)s5)CC4)cn3)nc2n(C2CCCC2)c1=O` [CPD-128, 2-(3-(2-(3-(4-(6-((6-Acetyl-8-cyclopentyl-5-methyl-7-oxo-7,8-dihydropyrido[2,3-d]pyrimidin-2-yl)amino)pyridin-3-yl)piperazin-1-yl)-3-oxopropoxy)ethoxy)propanamido)-N-(4,5-dimethylthiazol-2-yl)benzamide], the “CyclinD1 Degradation (200 nM)” value in the test with cyclin D1 is “C (protein percentage degradation <50%, and >=30%)”. For the same compound, at CDK4 (Calu-1, 16 h), the inhibition at 0.2 µM fell in the range of 50 to 80%.

Take `Cc1nc(NC(=O)c2ccccc2NC(=O)CCOCCOCCOCCNC(=O)CN2CCN(c3ccc(Nc4ncc5cc6n(c5n4)C4(CCCCC4)CNC6=O)nc3)CC2)sc1C` [CPD-324, N-(4,5-Dimethylthiazol-2-yl)-2-(2-oxo-1-(4-(6-((6′-oxo-7′,8′-dihydro-6′H-spiro[cyclohexane-1,9′-pyrazino[1′,2′:1,5]pyrrolo[2,3-d]pyrimidin]-2′-yl)amino)pyridin-3-yl)piperazin-1-yl)-6,9,12-trioxa-3-azapentadecan-15-amido)benzamide]: the “CyclinD1 Degradation (10 μM)” value in the test on cyclin D1 is given as “A (protein percentage degradation >= 80%)”. Moreover, the inhibition at 10 µM on CDK4 (Calu-1 cells, 16 hours) is 50 to 80%.

Values taken from US20250235543A1, “MODIFIED PROTEINS AND PROTEIN DEGRADERS” (Cullgen (Shanghai), Inc., priority 2021, published 2025).
